Measurements published in the supplement of paper PMC8671470.

Columns and labels:
Assay in all cases: cell viability (% survival relative to DMSO control, bortezomib = 0%); higher = less cytotoxic
Settings in all cases: 72 h
BV-173 = system: BV-173
In short: (§1)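 Fifteen myeloid leukaemia cell lines were exposed to compounds at 1, 10, 100, 1000 or 10000 nM in 384-well plates for 72 h at 37 °C and 5% CO2. Viability was read by CellTiter-Glo luminescence and normalised, with vehicle as 100% and a 10 µM positive control as 0%. Values are percent survival averaged over duplicates.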

KU-812 = system: KU-812
In short: as §1

Mono-Mac-6 = system: Mono-Mac-6
In short: as §1

SHI-1 = system: SHI-1
In short: as §1

SMILES | cell viability (BV-173; 1 nM) [%] | cell viability (BV-173; 10 nM) [%] | cell viability (BV-173; 100 nM) [%] | cell viability (BV-173; 1000 nM) [%] | cell viability (BV-173; 10000 nM) [%] | cell viability (KU-812; 1 nM) [%] | cell viability (KU-812; 10 nM) [%] | cell viability (KU-812; 100 nM) [%] | cell viability (KU-812; 1000 nM) [%] | cell viability (KU-812; 10000 nM) [%] | cell viability (Mono-Mac-6; 1 nM) [%] | cell viability (Mono-Mac-6; 10 nM) [%] | cell viability (Mono-Mac-6; 100 nM) [%] | cell viability (Mono-Mac-6; 1000 nM) [%] | cell viability (Mono-Mac-6; 10000 nM) [%] | cell viability (SHI-1; 1 nM) [%] | cell viability (SHI-1; 10 nM) [%] | cell viability (SHI-1; 100 nM) [%] | cell viability (SHI-1; 1000 nM) [%] | cell viability (SHI-1; 10000 nM) [%]
Cc1coc2c1C(=O)C(=O)c1c-2ccc2c(C)cccc12 [Tanshinone I] | 109 | 103 | 92 | 94 | 83.6 | 105 | 104 | 101 | 106 | 89.2 | 126 | 107 | 106 | 102 | 84.7 | 110 | 88.4 | 108 | 105 | 84.2
O=C(O)C(S)=Cc1c[nH]c2ccc(F)cc12 | 97.4 | 98.1 | 85.1 | 97.7 | 88 | 102 | 103 | 101 | 112 | 102 | 104 | 94.7 | 93.5 | 74.2 | 74.1 | 103 | 97.6 | 104 | 102 | 88.5
CC12CCC(O)CC1CCC1C2CCC2(C)C(C3=CC(=O)OC3)CCC12O (stereo not given) [Digitoxigenin] | 106 | 95.9 | 86.2 | 2.96 | -1.17 | 105 | 97.4 | 101 | 7.21 | 3.46 | 111 | 89.6 | 83 | 1.4 | -1.27 | 108 | 108 | 103 | 4.47 | -0.733
Sc1ncnc2nc[nH]c12 [6-mercaptopurine] | 103 | 93.8 | 86.8 | 38.8 | 12.3 | 98.9 | 100 | 93 | 59.3 | 54.4 | 97.2 | 97.7 | 85.9 | 53.7 | 15.5 | 113 | 98.6 | 102 | 66.2 | 32.6
C1CCc2nnc(C34CC5CC(CC(C5)C3)C4)n2CC1 [MERCK-544] | 107 | 66.3 | 85.7 | 94.7 | 92.2 | 97.6 | 95 | 86.9 | 78.7 | 97.9 | 95.9 | 100 | 93.3 | 97.7 | 96 | 90.2 | 110 | 104 | 90.2 | 118
Cl.OC[C@H]1NC[C@@H](O)[C@@H](O)[C@@H]1O [1-Deoxymannojirimycin hydrochloride] | 111 | 83.1 | 96.9 | 103 | 102 | 101 | 89.2 | 95.7 | 98 | 98.1 | 108 | 89.9 | 109 | 87.2 | 96.2 | 105 | 96.3 | 98.7 | 110 | 89.5
